Experimental data from patent US5968940A, “Retinoids and methods of use of same” (priority 1996, dated 1999).

Columns and labels:
[1] = test system: Human promyelocytic leukemia HL-60 cells; experiment: Cell differentiation of HL-60 cells, nitroblue tetrazolium (NBT) reduction / morphology; assay type: cell-based
Protocol: Human promyelocytic leukemia HL-60 cells were cultured in RPMI-1640 medium supplemented by 10% heat-inactivated calf serum and 100 U/ml of penicillin plus 100 μg/ml of streptomycin. The flasks containing cells and medium were incubated in an incubator with 5% CO2 at 37° C. Log phase cells were seeded into the medium at a concentration of 1.2×10^5to 1.4×10^5 cells per ml and cultured in flasks containing 5 ml of medium. Each group consisted of three flasks. Different concentrations of coumarin-retinoids were added. At intervals following the addition of coumarin-retinoids to the cultures, a small portion of cells was removed and live cells were counted under a light microscope using a dye-exclusionmethod with trypan blue. Cell differentiation was judged in terms of morphology and nitroblue tetrazolium (NBT) reduction.
For a determination of NBT reducing activity, a portion of the coumarin-retinoid-treated cells was removed at intervals following treatment and centrifuged. After centrifugation, 0.5 ml of 0.1% NBT (containing 100 ng TPA) was added to each tube. The contents of the test tubes were then incubated for 1 hour at 37° C. Cell smears were prepared from the cell sediment and stained using the Wright-Giemsa technique. For each smear prepared, 200 cells were isolated for examination under a light microscope with an oil immersion lens. Cells stained with blue-black granules were considered NBT-positive cells. The 50% differentiation or effective concentration (ED50 or EC50) is shown in terms of molar (M) concentration of the […] tested.
For a determination of cell morphology, a cell smear was prepared at intervals following treatment of cells for each coumarin-retinoid concentration group using the Wright-Giemsa stain technique. Stained cells were counted and classified under a light microscope with an oil immersion lens. After treatment with coumarin-retinoids, the morphological development of HL-60 cells proceeded toward mature granulocytes. This development was manifested by decreased cell volume; a lower nuclei to cytoplasm ratio; smaller or missing nuclei; concentration of chromatin; and the appearance of a certain proportion of intermediate and late granuloblasts (progranulocytes), elongated rod granulocytes, and granulocytes with branched nuclei.
The protocols of Examples 14 and 21 were used, for the NBT and MTT assays, respectively.

[2] = test system: Ornithine decarboxylase (ODC); experiment: Croton oil induced ornithine decarboxylase (ODC) activity in mouse epidermis; assay type: in vivo; conditions: ICR mice, single dose pretreatment; FIG. 1, n=3
Protocol: ICR mice (6-8 weeks old) were pretreated with a single dose of coumarin retinoid. On the third day, the animals received a topical application of 0.2 ml of 1% croton oil in acetone. All animals were sacrificed five hours after the croton oil treatment and the epidermis was separated by a brief heat treatment at 52° C. for 30 seconds and minced in a blender. The cell suspension and broth were separated by a centrifugation at 30,000×g for 30 seconds and the supernatant was obtained. Ornithine decarboxylase (ODC) enzyme activity was determined by measuring the release of CO2 from L-(^14 C)-ornithine and expressed as nmole CO2 /30 min/mg protein and the results for coumarin retinoid I-10 and I-6 are shown in FIG. 1. […] ODC activity is a critical parameter for monitoring cancer chemoprevention or promotion.

[3] = test system: croton oil induced ear edema in mice; experiment: Croton oil induced ear edema in mice; assay type: in vivo
Protocol: ICR mice (body weight 18-20 grams) were used. Each group consisted of 10 mice. After three dosage treatments, the left ears of the mice in both the treated group and the control group were painted with 2% croton oil in 0.05 ml ether. All the mice were sacrificed six hours later and the ears of both sides were punched by a corneal knife and weighed, the difference of the ear weight of both sides for each mouse was calculated. The t- Student test was used for statistical calculation. Croton oil induced ear edema is a classical assay for evaluation of cancer promotion.

[4] = test system: lipid peroxidation of rat liver microsome; experiment: Inhibition of Fe+2/Cys induced lipid peroxidation of rat liver microsome; assay type: biochemical
Protocol: Lipid peroxidation was induced by adding 1 mM FeSO4 and 10 mM cysteine to the microsome fraction of rat liver with the incubations being carried out at 37° C. for 30 minutes in a reaction mixture containing 10 mM phosphate buffer (pH 7.4). The reaction was terminated by the addition of 0.3 ml of 20% trichloroacetic acid solution. Thiobarbituric acid was then added and the mixture was boiled for 10 minutes. After cooling the test tubes under running tap water, the optical density at 532 nm was measured. Lipid peroxidation in both the treated groups and the control group was expressed in nmol MDA/mg protein. The percentage inhibition indicates the anti-oxidation properties of the coumarin retinoids tested.

[5] = test system: Salmonella typhimurium strain TA100; experiment: Anti-mutagenicity (Ames), TA100; assay type: cell-based; conditions: MMS mutagen alone, 0.5 μl/plate
Protocol: (§1) An antimutagenicity assay was conducted according to the method developed by Ames et al. using Salmonella typhimurium strains TA 102 and TA 100 and mammalian microsomal enzymes. Beta-naphthoflavone and phenobarbital-induced rat liver supernatant (9000×g S-9 fraction) was used as the enzyme source for metabolic activation. The night before the experiment, certified bacterial solution (assessed for its biological characteristics and donated by Professor Ames) was inoculated into petri dishes. The petri dishes were then incubated for 15 hours at 37° C. From each petri dish, 0.1 ml of the bacterial solution was removed and added to sterile test tubes. To these test tubes, 0.1 ml of different concentrations of coumarin retinoids and 0.5 ml of either S-9 mixed solution or phosphate buffer were then added. The final solution for each test tube was incubated in a water bath at 37° C. for 20 minutes before adding 2 ml of agar solution. After thorough mixing, the solution was transferred into petri dishes and incubated once again at 37° C. for 48 hours. After incubation, the number of colonies in each petri dish were counted. The revertant numbers of the bacteria in control and treated groups were compared and the inhibition rate was calculated.

[6] = test system: Salmonella typhimurium strain TA102; experiment: Anti-mutagenicity (Ames), TA102; assay type: cell-based; conditions: MMS mutagen alone, 0.5 μl/plate
Protocol: as §1

[7] = test system: bone abnormalities in mouse fetus; experiment: Bone abnormalities in mouse fetus; assay type: in vivo
Protocol: (§2) Female mice were examined by vaginal smear the morning after being caged with male mice, and if sperm or a vaginal plug was discovered, then the mice were determined to be pregnant. The retinoids were administered at the dosage indicated starting on the seventh day of pregnancy and continued once a day for the next ten days. On the 20th day after the female mice were determined to be pregnant, they were sacrificed by cervical dislocation. Both sides of the uterus were checked and the number of living embryos, dead embryos, and absorbed embryos were counted. The living embryos were further examined for bone abnormalities.
After the embryos became transparent, they were dissected and their skeletons were checked by observation under a microscope.

[8] = test system: fetus absorption in mice; experiment: Effect on fetus absorption in mice; assay type: in vivo
Protocol: as §2

[9] = test system: human acute myeloid leukemia (AML), neuroblastoma, teratocarcinoma, melanoma, and rat rhabdomyosarcoma cells; conditions: Smith et al. 1992; cited from earlier work
[10] = test system: chondrosarcoma; experiment: Growth of chondrosarcoma in rats; assay type: in vivo; conditions: for Body Weight final: in g (unit assumed)
Description: Transplantable chondrosarcomas obtained from Dr. Trown, Hoffman--La Roche Institute of Molecular Biology and Wistar rats obtained from the Breeding Center of Experimental Animals, Chinese Academy of Medical Sciences were used. According to the routine transplantation protocol as described in Cancer Treatment Reports 60(11):1647-1653 (1976) where the small pieces of chondrosarcoma tumor were implanted subcutaneously in the right inguinal region of rats using a trocar. Tumor-bearing rats were randomized to a control group and a treated group. Each group consisted of ten rats. […] Sixty days after transplantation, the rats were sacrificed and the tumor weight was determined. The inhibition rate was calculated according to the following formula: [formula]

[11] = 10 mg/kg once a day from day 7 of pregnancy

Structure (SMILES): CC(=O)c1cc2cc(Cl)c(OC(=O)/C=C(C)/C=C/C=C(C)/C=C/C3=C(C)CCCC3(C)C)cc2oc1=O [Compound I-6]
- NBT (+) % ([1]; 10^-4 M): 96%
- NBT (+) % ([1]; 10^-5 M): 81%
- NBT (+) % ([1]; 10^-6 M): 78%
- NBT (+) % ([1]; 10^-7 M): 31%
- NBT (+) % ([1]; 10^-8 M): 2%
- inhibition of croton oil induced ODC activity [2]: significantly inhibited the ODC activity induced by croton oil
- Ear Edema (x ± SD) ([3]; 50 mg/kg): 13.4 ± 3.1 mg
- IR (%) ([3]; 50 mg/kg): 19%
- Ear Edema (x ± SD) ([3]; 100 mg/kg): 15.1 ± 2.7 mg
- IR (%) ([3]; 100 mg/kg): 9%
- Inhibition (%) of lipid peroxidation ([4]; 20 μM): 9.6%
- Inhibition (%) of lipid peroxidation ([4]; 200 μM): 13.5%
- Lipid Peroxidation ([4]; 200 μM, n = 3, p < 0.05): 2.03 ± 0.16 μM MDA/mg protein

Structure (SMILES): COS(C)(=O)=O [MMS]
- his+ -revertants/per plate, TA100 [5]: 1083.7 ± 99.3 revertants/per plate
- his+ -revertants/per plate, TA102 [6]: 1760 ± 288.4 revertants/per plate

Structure (SMILES): CC1=C(/C=C/C(C)=C/C=C/C(C)=C/C(=O)O)C(C)(C)CCC1 [All Trans RA, all-trans-retinoic acid, reference compound]
- Delayed Calcification, Occipital delay/fetus number ([7]; 101 mg/kg (so in the source)): 6/16
- Delayed Calcification, Sternum delay/fetus number ([7]; 101 mg/kg (so in the source)): 16/16
- Fetus Absorption (%) [8, 11]: 73.7%
- Fetus Absorption, absorbed number/implanted number [8, 11]: 73/99
- Absorbed Number ([8]; 15 mg/kg, implanted number 186, 15 pregnant mice): 111
- induction of cell differentiation [9]: induces cell differentiation

Structure (SMILES): CC(=O)c1cc2c(OC(=O)/C=C(C)/C=C/C=C(C)/C=C/C3=C(C)CCCC3(C)C)cc(OC(=O)/C=C(C)/C=C/C=C(C)/C=C/C3=C(C)CCCC3(C)C)cc2oc1=O [Compound I-10]
- NBT (+) % ([1]; 6.4 × 10^-6 M): 99%
- NBT (+) % ([1]; 6.4 × 10^-7 M): 96%
- NBT (+) % ([1]; 6.4 × 10^-8 M): 82%
- NBT (+) % ([1]; 6.4 × 10^-9 M): 33%
- NBT (+) % ([1]; 6.4 × 10^-10 M): 10%
- inhibition of croton oil induced ODC activity [2]: significantly inhibited the ODC activity induced by croton oil
- Ear Edema (x ± SD) ([3]; 50 mg/kg): 14.2 ± 2.3 mg
- IR (%) ([3]; 50 mg/kg): 14%
- Ear Edema (x ± SD) ([3]; 100 mg/kg): 11.3 ± 3.0 mg
- IR (%) ([3]; 100 mg/kg): 32%
- Delayed Calcification, Occipital delay/fetus number ([7]; 20 mg/kg): 22/66
- Delayed Calcification, Sternum delay/fetus number ([7]; 20 mg/kg): 14/66
- Delayed Calcification, Occipital delay/fetus number ([7]; 40 mg/kg): 15/81
- Delayed Calcification, Sternum delay/fetus number ([7]; 40 mg/kg): 21/81
- Fetus Absorption, absorbed number/implanted number ([8]; 20 mg/kg once a day from day 7 of pregnancy): 0/104
- Fetus Absorption, absorbed number/implanted number ([8]; 40 mg/kg once a day from day 7 of pregnancy): 0/107
- Inhibition rate (%) ([10]; 5 mg/kg P.O. (Table 13)): 14.8%
- Tumor Weight ([10]; 5 mg/kg P.O. (Table 13)): 12.1 grams
- Animals final ([10]; 5 mg/kg P.O., initial 10 (Table 13)): 10
- Body Weight final ([10]; 5 mg/kg P.O., initial 97.8 (Table 13)): 258.4
- Tumor Weight ([10]; 10 mg/kg P.O.): 12.8 grams
- Animals final ([10]; 10 mg/kg P.O., initial 10): 9
- Body Weight final ([10]; 10 mg/kg P.O., initial 98.2): 248.0
- Tumor Weight ([10]; 20 mg/kg P.O.): 8.2 grams
- Animals final ([10]; 20 mg/kg P.O., initial 10): 9
- Body Weight final ([10]; 20 mg/kg P.O., initial 97.4): 253.1

Structure (SMILES): CC(=O)c1cc2ccc(OC(=O)/C=C(C)/C=C/C=C(C)/C=C/C3=C(C)CCCC3(C)C)c(C(=O)O)c2oc1=O [Compound I-5]
- NBT (+) % ([1]; 10^-4 M): 69%
- NBT (+) % ([1]; 10^-5 M): 89%
- NBT (+) % ([1]; 10^-7 M): 41%
- Inhibition (%) of lipid peroxidation ([4]; 1 μM): 7.3%
- Inhibition (%) of lipid peroxidation ([4]; 10 μM): 16.6%
- Lipid Peroxidation ([4]; 10 μM, n = 3, p < 0.05): 1.95 ± 0.18 μM MDA/mg protein
- Inhibition (%) of lipid peroxidation ([4]; 100 μM): 36.6%
- Lipid Peroxidation ([4]; 100 μM, n = 3, p < 0.01): 1.43 ± 0.16 μM MDA/mg protein
